Results as given in patent US20090156646A1, “PYRIDYLPHENOL COMPOUND AND USE THEREOF” (TAKEDA PHARMACEUTICAL COMPANY LIMITED, priority 2005, published 2009).
Where a name gives a salt, the structure may show the parent alone.

Key:
[1] = target: T1, human metastin receptor hOT7T175 (Homo sapiens, UniProt Q969F8, L364H); experiment: binding inhibiting activity: 125I-metastin (40-54) binding to cell membrane fraction of h175 KB34 cells; conditions: room temperature 60 minutes, read-out: binding inhibiting activity, represented by the IC50 value
T1 construct: encoding the entire length of human metastin receptor hOT7T175; expressed in transfected cells; host or cells: CHO/dhFr- cells (ATCC #CRL-9096) stably transfected with pAKKO-hOT7T175; clone h175-16 was used as whole cells for FLIPR
Experimental: cDNA fragments (SEQ ID NO: 2) encoding the entire length of human metastin receptor hOT7T175 were incorporated into expression vector pAKKO1.11H to produce animal cell expression plasmids pAKKO-hOT7T175. CHO/dhFr-cells (ATCC, #CRL-9096) were seeded onto 6 cm culture dishes (Becton Dickinson) at a density of 0.3×10^6 cells/dish, and cultured in the conditions of 48 hours, 37° C. and 5% CO2. 5 μg pAKKO-hOT7T175 plasmid DNA was transfected to the resultant cells by a known method (described in Example 3 of WO 00/24890) using the Cellphect Transfection Kit (Amersham, #27-9268-01). The DNA-transfected cells were cultured in the Dulbecco's modified Eagle medium (DMEM) (Sigma, #D6046) containing 10% dialyzed FBS (Biowest, #S180D), 1× Non-Essential Amino Acid (Invitrogen, #11140-050) and 50 μg/ml Gentamycin (Invitrogen, #15750-060; and cell strains stably expressing the plasmid genes were selected. The obtained 41 clones were treated with the FLIPR assay (in accordance with the method described in Example 3 of WO 00/24890), and the reactivity to the human metastin […] (Nos. 40 to 54 of the human metastin sequence; Peptide Institute, Inc., #4389-v) was evaluated. In the end, h175 KB34 cell strains were selected. By substantially the same method, h175-16 cell strains were also produced.
The h175 KB34 cells were cultured to be on the stage of 40-50% confluency using a cell factory (Nunc, #164327), and then cells were recovered in the following method.
First, the medium was disposed, and the cells were washed twice with 200 ml EDTA/PBS(−). Another 200 ml of EDTA/PBS(−) was added, and the cells were kept still for 20 minutes at room temperature until being peeled off. The cells were recovered into four 50 ml tubes (Becton Dickinson, #352070), and centrifuged (2,000 rpm, 10 min., 4° C.) by a reduced performance centrifuge (TOMY, RL-101). The supernatant was disposed, and the pellets in the four tubes were each suspended with 10 ml EDTA/PBS(−) and collected into one tube (Becton Dickinson, #352070). The pellet was further centrifuged (2,000 rpm, 10 min., 4° C.). The resultant pellet was suspended with 20 ml ice-cooled homogenizer buffer [10 mM NaHCO3, 2 mM EGTA, 0.2 mM magnesium acetate, 10 μg/ml Leupeptin (Peptide Institute, Inc., #4041), 10 μg/ml E-64 (Peptide Institute, Inc., # 4096), 100 μg/ml o-phenanthroline (Dojindo Laboratories), 90 μg/ml PMSF (Wako Pure Chemical Industries, Ltd.), 10 μg/ml Pepstatin A (Peptide Institute, Inc., #4397), pH7.3]. The cell suspension was homogenized 3 times, each for 30 seconds, using a Polytron homogenizer. The resultant homogenate was centrifuged (2,500 rpm, 10 min, 4° C.) using a high performance refrigerated centrifuge (Hitachi, Ltd., CR26H). The supernatant was recovered into a super-centrifuge tube, and super-centrifuged (30,000 rpm, 60 min, 4° C.) using a super-centrifuge (Hitachi, Ltd., SCP70H). 3 ml homogenizer buffer was added to the resultant pellet, and the pellet was suspended by pipetting. 3 ml glycerol (Wako Pure Chemical Industries, Ltd.) was added to the resultant suspension and diluted 2-folds. The resultant substance was used as a cell membrane fraction of the h175 KB34 cells. Each […] of the membrane fraction was put into a 1.5 ml tube (Eppendorf, #0030120.086), stored in a freezer (−30 C) so as not to be frozen, and used for a binding assay.
An assay buffer was prepared on the day of the test by adding, to each 100 ml of an assay basic buffer [20 mM Tris, 2.5 mM Magnesium Acetate, 2 mM EGTA, pH 7.4], 1 mg Leupeptin (Peptide Institute, Inc., 4041), 1 mg E-64 (Peptide Institute, Inc., 4096), 10 mg o-phenanthroline (Dojindo Laboratories), 9 mg PMSF (Wako Pure Chemical Industries, Ltd.) and 1 mg Pepstatin A (Peptide Institute, Inc., 4397). The prepared assay buffer was stored at 4° C. until being used. When the measurement was to be performed with no BSA, the above-described assay buffer was used. […]

T1 sequence (Q969F8 whole entry L364H): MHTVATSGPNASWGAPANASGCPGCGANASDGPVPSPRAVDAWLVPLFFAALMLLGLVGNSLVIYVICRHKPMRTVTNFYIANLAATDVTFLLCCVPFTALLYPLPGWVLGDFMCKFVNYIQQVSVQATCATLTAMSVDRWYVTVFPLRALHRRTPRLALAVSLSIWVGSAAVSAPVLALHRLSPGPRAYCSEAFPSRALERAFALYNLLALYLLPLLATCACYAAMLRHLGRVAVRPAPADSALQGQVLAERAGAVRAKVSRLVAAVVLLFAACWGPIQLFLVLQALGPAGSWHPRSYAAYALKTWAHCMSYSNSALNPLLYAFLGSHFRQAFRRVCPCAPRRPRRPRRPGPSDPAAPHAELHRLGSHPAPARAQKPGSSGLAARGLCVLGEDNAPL

Structure (SMILES) | IC50 [1] | melting point
Cl.N#Cc1c(-c2cccc(NC(=O)[C@@H]3C[C@@H](O)CN3)c2)cc(-c2ccc(F)cc2O)nc1NC(=O)c1ccco1 [Example 298, (4R)—N-{3-[3-cyano-6-(4-fluoro-2-hydroxyphenyl)-2-(2-furoylamino)pyridin-4-yl]phenyl}-4-hydroxy-L-prolinamide hydrochloride] | ≤ 10 µM | 260 to 262 °C
COc1c(C(=O)NCCN)cccc1-c1cc(-c2ccccc2O)nc(NC(=O)c2ccco2)c1C#N.Cl [Example 273, N-[4-(3-{[(2-aminoethyl)amino]carbonyl}-2-methoxyphenyl)-3-cyano-6-(2-hydroxyphenyl)pyridin-2-yl]-2-furamide hydrochloride] | ≤ 10 µM | 182 to 188 °C
CC(C)(CN)CNC(=O)c1cccc(-c2cc(-c3ccc(Cl)cc3O)nc(NC(=O)c3ccco3)c2C#N)c1.Cl [Example 85, N-[4-(3-{[(3-amino-2,2-dimethylpropyl)amino]carbonyl}phenyl)-6-(4-chloro-2-hydroxyphenyl)-3-cyanopyridin-2-yl]-2-furamide hydrochloride] | ≤ 10 µM | 241 to 244 °C
Cc1ccc(-c2cc(-c3cccc(NC(=O)CCN)c3)c(C#N)c(NC(=O)c3cccs3)n2)c(O)c1.Cl [Example 57, N-{4-[3-(β-alanylamino)phenyl]-3-cyano-6-(2-hydroxy-4-methylphenyl)pyridin-2-yl}thiophene-2-carboxamide hydrochloride] | ≤ 10 µM | 204 to 210 °C
Cl.N#Cc1c(-c2ccc(F)c(C(=O)NCCN)c2)cc(-c2ccc(F)cc2O)nc1NC(=O)c1ccco1 [Example 281, N-[4-(3-{[(2-aminoethyl)amino]carbonyl}-4-fluorophenyl)-3-cyano-6-(4-fluoro-2-hydroxyphenyl)pyridin-2-yl]-2-furamide hydrochloride] | ≤ 10 µM | 255 to 264 °C
CCN(CC)CC(=O)Nc1cccc(-c2cc(-c3ccc(F)cc3O)nc(NC(=O)c3ccco3)c2C#N)c1.Cl [Example 315, N-[3-cyano-4-{3-[(N,N-diethylglycyl)amino]phenyl}-6-(4-fluoro-2-hydroxyphenyl)pyridin-2-yl]-2-furamide hydrochloride] | ≤ 10 µM | 262 to 263 °C
N#Cc1c(-c2cccc(CN3CCNCC3)c2)cc(-c2ccc(F)cc2O)nc1NC(=O)c1ccco1 [Example 325, N-{3-cyano-6-(4-fluoro-2-hydroxyphenyl)-4-[3-(piperazine-1-ylmethyl)phenyl]pyridin-2-yl}-2-furamide ditrifluoroacetic acid] | ≤ 10 µM | 
CNCC(=O)Nc1cccc(-c2cc(-c3ccc(F)cc3O)nc(NC(=O)c3ccco3)c2C#N)c1 [Example 312, N-(3-cyano-6-(4-fluoro-2-hydroxyphenyl)-4-{3-[(N-methylglycyl)amino]phenyl}pyridin-2-yl)-2-furamide hydrochloride] | ≤ 10 µM | 
COc1ccc(C(=O)Nc2nc(-c3ccc(Cl)cc3O)cc(-c3cccc(NC(=O)CCN)c3)c2C#N)c(OC)c1 [Example 255, N-[4-[3-(β-alanylamino)phenyl]-6-(4-chloro-2-hydroxyphenyl)-3-cyanopyridin-2-yl]-2,4-dimethoxybenzamide dihydrochloride] | ≤ 10 µM | 
N#Cc1c(-c2cccc(C(=O)NCCN)c2)cc(-c2ccc(F)cc2O)nc1NC(=O)c1ccco1 [Example 66, N-[4-(3-{[(2-aminoethyl)amino]carbonyl}phenyl)-3-cyano-6-(4-fluoro-2-hydroxyphenyl)pyridin-2-yl]-2-furamide hydrochloride] | ≤ 10 µM | 
CCN(CC)CCN(CC)c1cccc(-c2cc(-c3ccc(F)cc3O)nc(NC(=O)c3ccco3)c2C#N)c1 [Example 304, N-[3-cyano-4-{3-[[2-(diethylamino)ethyl] (ethyl)amino]phenyl}-6-(4-fluoro-2-hydroxyphenyl)pyridin-2-yl]-2-furamide dihydrochloride] | ≤ 10 µM | 
COc1c(NC(=O)OC(C)(C)C)cccc1-c1cc(-c2ccccc2O)nc(NC(=O)c2ccco2)c1C#N [Example 275, tert-butyl{3-[3-cyano-2-(2-furoylamino)-6-(2-hydroxyphenyl)pyridin-4-yl]-2-methoxyphenyl}carbamate] | ≤ 10 µM | 
CN(C(=O)CN)c1cccc(-c2cc(-c3ccccc3O)nc(NC(=O)c3cccs3)c2C#N)c1 [Example 41, N-[3-cyano-4-{3-[glycyl(methyl)amino]phenyl}-6-(2-hydroxyphenyl)pyridin-2-yl]thiophene-2-carboxamide dihydrochloride] | ≤ 10 µM | 
N#Cc1c(-c2cccc(NC(=O)[C@@H]3CCCC[C@H]3N)c2)cc(-c2ccc(F)cc2O)nc1NC(=O)c1ccco1 (racemic) [Example 277, N-{4-[3-({[(1SR,2SR)-2-aminocyclohexyl]carbonyl}amino)phenyl]-3-cyano-6-(4-fluoro-2-hydroxyphenyl)pyridin-2-yl}-2-furamide hydrochloride] | ≤ 10 µM | 
CN(C)CC(=O)Nc1cccc(-c2cc(-c3ccc(F)cc3O)nc(NC(=O)c3ccco3)c2CN(C)C)c1 [Example 300, N-[3-[(dimethylamino)methyl]-4-{3-[(N,N-dimethylglycyl)amino]phenyl}-6-(4-fluoro-2-hydroxyphenyl)pyridin-2-yl]-2-furamide dihydrochloride] | ≤ 10 µM | 
N#Cc1c(-c2ccnc(C(=O)NCCN)c2)cc(-c2ccccc2O)nc1NC(=O)c1ccco1 [Example 272, N-(2-aminoethyl)-3′-cyano-2′-(2-furoylamino)-6′-(2-hydroxyphenyl)-4,4′-bipyridine-2-carboxamide dihydrochloride] | ≤ 10 µM | 
N#Cc1c(-c2cccc(NC(=O)CCN)c2)cc(-c2ccc(F)cc2O)nc1NC(=O)c1cccs1 [Example 58, N-{4-[3-(β-alanylamino)phenyl]-3-cyano-6-(4-fluoro-2-hydroxyphenyl)pyridin-2-yl}thiophene-2-carboxamide hydrochloride] | ≤ 10 µM | 
CCN1CCN(Cc2cccc(-c3cc(-c4ccc(F)cc4O)nc(NC(=O)c4ccco4)c3C#N)c2)CC1 [Example 334, N-[3-cyano-4-{3-[(4-ethylpiperazin-1-yl)methyl]phenyl}-6-(4-fluoro-2-hydroxyphenyl)pyridin-2-yl]-2-furamide dihydrochloride] | ≤ 10 µM | 
N#Cc1c(-c2cccc(NC(=O)CCN)c2)cc(-c2ccc(Cl)cc2O)nc1NC(=O)c1cccs1 [Example 56, N-{4-[3-(β-alanylamino)phenyl]-6-(4-chloro-2-hydroxyphenyl)-3-cyanopyridin-2-yl}thiophene-2-carboxamide trifluoroacetate] | ≤ 10 µM | 
N#Cc1c(-c2cccc(NC(=O)[C@@H](N)Cc3cnc[nH]3)c2)cc(-c2ccc(Cl)cc2O)nc1NC(=O)c1ccco1 [Example 243, N-{3-[6-(4-chloro-2-hydroxyphenyl)-3-cyano-2-(2-furoylamino)pyridin-4-yl]phenyl}-L-histidinamide dihydrochloride] | ≤ 10 µM | 
